According to PMC12527922, “Cocaine chemogenetics blunts drug-seeking by synthetic physiology” (Nature, 2025):
Values joined by “and” are separate entries in the source; they are usually repeats but may differ in a detail not shown here. Equal entries are not always repeated.

Legend:
[1] = test system: [^18F]fallypride binding at D2/D3 receptors (extracellular dopamine); test: [^18F]fallypride PET, rats with coca-5HT3 in the LHb and controls; assay type: in vivo, rat
Method: Male Sprague–Dawley rats were anaesthetized with isoflurane (1.5-2%) and then placed onto a stereotaxic frame (Kopf) and injected with AAV5-Syn::coca-5HT3-IRES-mCherry (0.5 µl, 4.95 × 10^12 vg per ml) into the LHb (AP relative to bregma, −3.8 mm; ML, ±0.7 mm; DV, −5.25 mm, at a 10° angle) (n = 5) or underwent sham surgery (n = 9). Male Th-cre rats were anaesthetized with isoflurane (1.5–2%) and then placed onto a stereotaxic frame (Kopf) and injected with AAV1-Syn::FLEX-coca-GlyR-IRES-mCherry (0.5 µl, 6 × 10^12 vg per ml) into the VTA (AP, −6.0 mm relative to bregma; ML, ±1.9 mm; DV, −8.3 mm at a 10° angle) (n = 9) or underwent sham surgery (n = 6). Approximately 3 weeks later, the rats were anaesthetized, placed inside the PET scanner (Mediso NanoScan PET/CT), injected with [^18F]fallypride (~13 MBq) and then scanned using PET. [^18F]fallypride reaches steady-state by around 45 min after its injection and then remains stable for at least 150 min[60]. […] The PET data were reconstructed and corrected for dead-time and radioactive decay and then co-registered to an magnetic resonance imaging template as previously described[46],[60],[61]. Co-registered images were analysed using one-way ANOVA and the resulting parametric images were filtered for statistically significant (P < 0.01) clusters larger than 100 contiguous voxels. All statistical parametric mapping (SPM) analyses were performed using MATLAB R2016 (MathWorks) and SPM12 (University College London)[62]. Next, additional quantitative assessments of PET images were performed using the PMOD software environment (PMOD Technologies). We generated time–activity curves using the co-registered dynamic PET images and the significant voxel clusters defined by the voxel-wise SPM analysis as the volume of interest. The standardized uptake value (SUV) was calculated using the equation SUV = C/(dose/BW) where C is the tissue concentration of [^18F]fallypride (kBq cm^−3), dose is the administered dose (MBq) and BW (kg) is the animal’s body weight. Statistical analyses were performed using Prism 10 (GraphPad).

[2] = biological target: coca-5HT3 (α7(L141G,G175K,Y210F,Y217F)–5HT3) (Homo sapiens, UniProt P36544, G175K/L141G/Y210F/Y217F); test: Membrane potential assay, coca-5HT3 in HEK293; settings: for Response / Max normalized Response: coca-5HT3; for Max normalized Response: ED Fig 3b
Chain of coca-5HT3 (α7(L141G,G175K,Y210F,Y217F)–5HT3) (P36544 23-224 L141G/G175K/Y210F/Y217F): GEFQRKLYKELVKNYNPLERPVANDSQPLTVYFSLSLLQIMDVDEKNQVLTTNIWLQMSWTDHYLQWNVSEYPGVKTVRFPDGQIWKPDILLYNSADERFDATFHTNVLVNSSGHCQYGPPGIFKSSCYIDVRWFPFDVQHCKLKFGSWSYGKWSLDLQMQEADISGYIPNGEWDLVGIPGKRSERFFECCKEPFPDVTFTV
Chain of coca-5HT3 (α7(L141G,G175K,Y210F,Y217F)–5HT3) (P23979 242-489, further chain): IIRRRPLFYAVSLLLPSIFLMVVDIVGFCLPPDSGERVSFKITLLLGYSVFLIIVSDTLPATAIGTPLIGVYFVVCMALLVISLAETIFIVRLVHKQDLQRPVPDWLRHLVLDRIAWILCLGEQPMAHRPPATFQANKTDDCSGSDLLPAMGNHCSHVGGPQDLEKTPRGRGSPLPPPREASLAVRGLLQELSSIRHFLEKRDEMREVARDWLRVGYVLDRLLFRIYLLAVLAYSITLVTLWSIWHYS

COC(=O)[C@H]1[C@@H](OC(=O)c2ccccc2)C[C@@H]2CC[C@H]1N2C [cocaine]
Cerebellum, Mean ([1]; Coca-5HT3, Time 60 min): 111.27
Striatum, Mean ([1]; Coca-5HT3, Time 60 min): 100.47
Cerebellum, Mean ([1]; Coca-5HT3, Time 63 min): 107.441
Striatum, Mean ([1]; Coca-5HT3, Time 63 min): 99.116
Cerebellum, Mean ([1]; Coca-5HT3, Time 66 min): 105.193
Striatum, Mean ([1]; Coca-5HT3, Time 66 min): 105.45
Cerebellum, Mean ([1]; Coca-5HT3, Time 69 min): 101.891
Striatum, Mean ([1]; Coca-5HT3, Time 69 min): 101.914
Cerebellum, Mean ([1]; Coca-5HT3, Time 72 min): 100.511
Striatum, Mean ([1]; Coca-5HT3, Time 72 min): 99.6684
Cerebellum, Mean ([1]; Coca-5HT3, Time 75 min): 97.2849
Striatum, Mean ([1]; Coca-5HT3, Time 75 min): 101.446
Cerebellum, Mean ([1]; Coca-5HT3, Time 78 min): 98.3773
Striatum, Mean ([1]; Coca-5HT3, Time 78 min): 97.1795
Cerebellum, Mean ([1]; Coca-5HT3, Time 81 min): 97.6857
Striatum, Mean ([1]; Coca-5HT3, Time 81 min): 99.4438
Cerebellum, Mean ([1]; Coca-5HT3, Time 84 min): 92.2137
Striatum, Mean ([1]; Coca-5HT3, Time 84 min): 99.5545
Cerebellum, Mean ([1]; Coca-5HT3, Time 87 min): 94.6333
Striatum, Mean ([1]; Coca-5HT3, Time 87 min): 100.176
Cerebellum, Mean ([1]; Coca-5HT3, Time 90 min): 93.4987
Striatum, Mean ([1]; Coca-5HT3, Time 90 min): 95.582
Cerebellum, Mean ([1]; Coca-5HT3, Time 92 min): 99.4012
Striatum, Mean ([1]; Coca-5HT3, Time 92 min): 95.8906
Cerebellum, Mean ([1]; Coca-5HT3, Time 94 min): 96.5331
Striatum, Mean ([1]; Coca-5HT3, Time 94 min): 92.7294
Cerebellum, Mean ([1]; Coca-5HT3, Time 96 min): 96.1496
Striatum, Mean ([1]; Coca-5HT3, Time 96 min): 97.7961
Cerebellum, Mean ([1]; Coca-5HT3, Time 98 min): 96.6515
Striatum, Mean ([1]; Coca-5HT3, Time 98 min): 98.5867
Cerebellum, Mean ([1]; Coca-5HT3, Time 100 min): 92.3336
Striatum, Mean ([1]; Coca-5HT3, Time 100 min): 97.1381
Cerebellum, Mean ([1]; Coca-5HT3, Time 104 min): 94.2368
Striatum, Mean ([1]; Coca-5HT3, Time 104 min): 97.3152
Cerebellum, Mean ([1]; Coca-5HT3, Time 106 min): 94.1983
Striatum, Mean ([1]; Coca-5HT3, Time 106 min): 95.2722
Cerebellum, Mean ([1]; Coca-5HT3, Time 110 min): 94.753
Striatum, Mean ([1]; Coca-5HT3, Time 110 min): 92.686
Cerebellum, Mean ([1]; Coca-5HT3, Time 112 min): 89.5645
Striatum, Mean ([1]; Coca-5HT3, Time 112 min): 94.0331
Cerebellum, Mean ([1]; Coca-5HT3, Time 116 min): 89.6884
Striatum, Mean ([1]; Coca-5HT3, Time 116 min): 93.7732
Cerebellum, Mean ([1]; Coca-5HT3, Time 118 min): 92.5349
Striatum, Mean ([1]; Coca-5HT3, Time 118 min): 94.2486
Cerebellum, Mean ([1]; Coca-5HT3, Time 120 min): 85.32
Striatum, Mean ([1]; Coca-5HT3, Time 120 min): 92.7482
Cerebellum, Mean ([1]; Control, Time 60 min): 103.946
Striatum, Mean ([1]; Control, Time 60 min): 104.425
Cerebellum, Mean ([1]; Control, Time 63 min): 103.573
Striatum, Mean ([1]; Control, Time 63 min): 105.053
Cerebellum, Mean ([1]; Control, Time 66 min): 103.781
Striatum, Mean ([1]; Control, Time 66 min): 101.615
Cerebellum, Mean ([1]; Control, Time 69 min): 101.695
Striatum, Mean ([1]; Control, Time 69 min): 102.645
Cerebellum, Mean ([1]; Control, Time 72 min): 100.786
Striatum, Mean ([1]; Control, Time 72 min): 99.1445
Cerebellum, Mean ([1]; Control, Time 75 min): 98.0752
Striatum, Mean ([1]; Control, Time 75 min): 97.188
Cerebellum, Mean ([1]; Control, Time 78 min): 100.961
Striatum, Mean ([1]; Control, Time 78 min): 99.7495
Cerebellum, Mean ([1]; Control, Time 81 min): 99.7275
Striatum, Mean ([1]; Control, Time 81 min): 97.1175
Cerebellum, Mean ([1]; Control, Time 84 min): 97.0682
Striatum, Mean ([1]; Control, Time 84 min): 97.2682
Cerebellum, Mean ([1]; Control, Time 87 min): 95.0129
Striatum, Mean ([1]; Control, Time 87 min): 98.2036
Cerebellum, Mean ([1]; Control, Time 90 min): 95.374
Striatum, Mean ([1]; Control, Time 90 min): 97.5908
Cerebellum, Mean ([1]; Control, Time 92 min): 99.2942
Striatum, Mean ([1]; Control, Time 92 min): 96.7723
Cerebellum, Mean ([1]; Control, Time 94 min): 98.6955
Striatum, Mean ([1]; Control, Time 94 min): 94.2988
Cerebellum, Mean ([1]; Control, Time 96 min): 97.5545
Striatum, Mean ([1]; Control, Time 96 min): 90.3041
Cerebellum, Mean ([1]; Control, Time 98 min): 95.1481
Striatum, Mean ([1]; Control, Time 98 min): 92.8392
Cerebellum, Mean ([1]; Control, Time 100 min): 95.7886
Striatum, Mean ([1]; Control, Time 100 min): 87.2087
Cerebellum, Mean ([1]; Control, Time 104 min): 93.5542
Striatum, Mean ([1]; Control, Time 104 min): 88.7106
Cerebellum, Mean ([1]; Control, Time 106 min): 95.3248
Striatum, Mean ([1]; Control, Time 106 min): 84.6758
Cerebellum, Mean ([1]; Control, Time 110 min): 94.4655
Striatum, Mean ([1]; Control, Time 110 min): 84.755
Cerebellum, Mean ([1]; Control, Time 112 min): 92.6418
Striatum, Mean ([1]; Control, Time 112 min): 85.4315
Cerebellum, Mean ([1]; Control, Time 116 min): 92.1838
Striatum, Mean ([1]; Control, Time 116 min): 85.918
Cerebellum, Mean ([1]; Control, Time 118 min): 92.0673
Striatum, Mean ([1]; Control, Time 118 min): 82.9007
Cerebellum, Mean ([1]; Control, Time 120 min): 91.4483
Striatum, Mean ([1]; Control, Time 120 min): 84.8826
[^18F]fallypride binding, cocaine versus saline ([1]; control rats, cocaine 3 mg per kg i.v., nucleus accumbens and ventromedial dorsal striatum voxels): significantly decreased
EC50 ([2]; EC50 at a75HT3 L141G G175K Y210F Y217F, AVG, sheet 1e): 1.58 µM
EC50 ([2]; EC50 at a75HT3 L141G G175K Y210F Y217F, sheet 1e, single determinations): 1.8 µM and 1 µM and 2.64 µM and 0.81 µM and 1.25 µM and 0.84 µM and 2.8 µM
Response ([2]; conc 0.0137 uM, ED Fig. 2c): 0.067
Response ([2]; conc 0.0137174 uM, ED Fig. 2b): 0.067
Response ([2]; conc 0.123 uM, ED Fig. 2c): 0.063
Response ([2]; conc 0.123457 uM, ED Fig. 2b): 0.063
Max normalized Response ([2]; conc 0.137 uM): 0.07313
Response ([2]; conc 0.37 uM, ED Fig. 2c): 0.098
Response ([2]; conc 0.37037 uM, ED Fig. 2b): 0.098
Response ([2]; conc 0.457247 uM, ED Fig 3a): 0.103
Response ([2]; conc 1.11111 uM, ED Fig. 2b): 0.363
Response ([2]; conc 1.37174 uM, ED Fig 3a): 0.237
Response ([2]; conc 3.33333 uM, ED Fig. 2b): 0.825
Max normalized Response ([2]; conc 3.7 uM): 0.5001
Response ([2]; conc 10 uM, ED Fig. 2b): 1.02
Response ([2]; conc 10 uM, ED Fig. 2c): 1.023
Max normalized Response ([2]; conc 11.1 uM): 0.7653
Response ([2]; conc 12.3457 uM, ED Fig 3a): 1.106
Response ([2]; conc 30 uM, ED Fig. 2b): 0.86
Response ([2]; conc 30 uM, ED Fig. 2c): 0.864
Max normalized Response ([2]; conc 33.3 uM): 0.8419
Response ([2]; conc 37.037 uM, ED Fig 3a): 0.885
Max normalized Response ([2]; conc 100 uM): 0.9656
EC50 ([2]; half-maximum effective concentration (EC50), HEK293, fluorescence membrane potential assay): 1.5 ± 0.3 µM
peak brain cocaine concentration relative to EC50 for coca-5HT3 ([2]; intravenous dose in rats, Pan et al 1991): approximately 1.5 fold
